We go through two compounds from publication PMC2693909 (Journal of molecular biology, 2009).

In the experiment the target is Hsc70 NBD (Hsc-70-NBD) (Bos taurus, UniProt P19120). Nature of the experiment: […]-1H NMR chemical shift differences, ATP versus ADP.Pi state. Type of experiment: binding. The settings on record: neutral aqueous solution.

The structures appear in SMILES notation.

Sequence of Hsc70 NBD (Hsc-70-NBD) (P19120 1-383 limits assumed): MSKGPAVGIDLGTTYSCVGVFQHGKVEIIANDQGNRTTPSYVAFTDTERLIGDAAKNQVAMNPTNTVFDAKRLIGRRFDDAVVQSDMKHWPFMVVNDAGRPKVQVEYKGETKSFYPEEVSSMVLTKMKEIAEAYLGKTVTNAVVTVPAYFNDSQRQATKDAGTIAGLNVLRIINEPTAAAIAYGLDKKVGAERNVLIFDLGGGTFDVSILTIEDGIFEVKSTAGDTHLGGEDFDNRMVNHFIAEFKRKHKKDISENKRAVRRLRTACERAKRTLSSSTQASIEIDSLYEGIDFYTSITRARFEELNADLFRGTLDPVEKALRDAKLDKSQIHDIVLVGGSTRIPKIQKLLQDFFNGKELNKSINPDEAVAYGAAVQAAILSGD

Regarding `Nc1ncnc2c1ncn2[C@@H]1O[C@H](COP(=O)(O)OP(=O)(O)OP(=O)(O)O)[C@@H](O)[C@H]1O` [ATP], the “15N-1H NMR chemical shift differences, ATP versus ADP.Pi state” value (ATP state) is “NMR spectra of the isolated NBD of Hsc70 between the ADP.Pi and ATP state”.

Take `Nc1ncnc2c1ncn2[C@@H]1O[C@H](COP(=O)(O)OP(=O)(O)O)[C@@H](O)[C@H]1O` [ADP]: the “15N-1H NMR chemical shift differences, ATP versus ADP.Pi state” value (ADP.Pi state) is “NMR spectra of the isolated NBD of Hsc70 between the ADP.Pi and ATP state”.
